Assay results from ChEMBL document CHEMBL1140598, “A review of anti-infective and anti-inflammatory chalcones” (Eur J Med Chem, 2007).
Values after ≈ are worked out from the molar mass of the structure shown.

Tests used:
Plasmodium falciparum [1] = assay: Antimalarial activity against chloroquine-sensitive Plasmodium falciparum HB3; format: functional, organism-based
[2] = target: Superoxide dismutase [Fe] (Plasmodium falciparum) (UniProt Q9TW89); assay: Inhibition of Plasmodium falciparum recombinant superoxide dismutase at 50 uM
Chain of Superoxide dismutase [Fe] (Plasmodium falciparum) (Q9TW89 whole entry): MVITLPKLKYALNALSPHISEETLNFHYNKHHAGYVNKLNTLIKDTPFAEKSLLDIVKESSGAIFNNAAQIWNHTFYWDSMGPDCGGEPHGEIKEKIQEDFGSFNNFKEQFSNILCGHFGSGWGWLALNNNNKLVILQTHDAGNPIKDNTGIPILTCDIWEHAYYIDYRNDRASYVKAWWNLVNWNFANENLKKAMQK

Plasmodium falciparum [3] = assay: Antimalarial activity against chloroquine-resistant Plasmodium falciparum Dd2; format: functional, organism-based
Leishmania amazonensis [4] = assay: Antileishmanial activity against Leishmania amazonensis intracellular amastigotes; format: functional; settings: read-out: ED50 (the source's name)
Leishmania amazonensis [5] = assay: Antileishmanial activity against Leishmania amazonensis promastigotes; format: functional; settings: read-out: ED50 (the source's name)
Leishmania major = assay: Growth inhibition of Leishmania major promastigotes assessed as [3H]thymidine incorporation; format: functional, organism-based
[6] = Inhibition of Leishmania major succinate dehydrogenase in human PBMCs crude mitochondria after 60 mins
[7] = Inhibition of Leishmania major succinate dehydrogenase
Staphylococcus aureus [8] = assay: Antibacterial activity against methicillin-sensitive Staphylococcus aureus FDA209P; format: functional
Bacillus cereus = assay: Antibacterial activity against Bacillus cereus; format: functional
Enterococcus faecium = assay: Antibacterial activity against Enterococcus faecium; format: functional
Clostridium sporogenes = assay: Antibacterial activity against Clostridium sporogenes; format: functional
Mycobacterium kansasii = assay: Antibacterial activity against Mycobacterium kansasii; format: functional
[9] = Inhibition of Leishmania donovani fumarate reductase in after 60 mins
Heyndrickxia coagulans = assay: Antibacterial activity against Bacillus coagulans; format: functional
[10] = test system: Geobacillus stearothermophilus; assay: Antibacterial activity against Bacillus stearothermophilus; format: functional
Staphylococcus aureus [11] = assay: Antibacterial activity against methicillin-resistant Staphylococcus aureus OM481; format: functional
Staphylococcus aureus [12] = assay: Antibacterial activity against methicillin-resistant Staphylococcus aureus OM505; format: functional
Staphylococcus aureus [13] = assay: Antibacterial activity against methicillin-sensitive Staphylococcus aureus Smith; format: functional
Leishmania donovani = assay: Inhibition of Leishmania donovani amastigotes in human monocyte-derived macrophages; format: functional, organism-based
Mycobacterium xenopi = assay: Antibacterial activity against Mycobacterium xenopi; format: functional
[14] = test system: Mycobacterium tuberculosis; assay: Antibacterial activity against Mycobacterium tuberculosis; format: functional
[15] = Inhibition of Leishmania major NADH-dehydrogenase in human PBMCs crude mitochondria after 60 mins
[16] = Inhibition of Leishmania major NADH-cytochrome c reductase
[17] = Inhibition of Leishmania major NADH dehydrogenase
Mycobacterium marinum = assay: Antibacterial activity against Mycobacterium marinum; format: functional
[18] = Inhibition of Leishmania major succinate-cytochrome c reductase
Helicobacter pylori = assay: Growth inhibition of Helicobacter […]; format: functional
Enterococcus faecalis = assay: Antibacterial activity against Enterococcus faecalis; format: functional
Plasmodium falciparum [19] = assay: Antiplasmodial activity against chloroquine-resistant Plasmodium falciparum W2; format: functional, organism-based
Staphylococcus aureus [20] = assay: Antibacterial activity against methicillin-resistant Staphylococcus aureus ST28; format: functional
Staphylococcus aureus [21] = assay: Antibacterial activity against Staphylococcus aureus; format: functional, organism-based
Staphylococcus aureus [22] = assay: Antibacterial activity against methicillin-resistant Staphylococcus aureus K3; format: functional
Streptococcus mutans = assay: Antibacterial activity against […]; format: functional
[23] = test system: Lactiplantibacillus plantarum; assay: Antibacterial activity against Lactobacillus plantarum; format: functional
[24] = test system: Lactobacillus acidophilus; assay: Antibacterial activity against Lactobacillus acidophilus; format: functional
Bacillus subtilis = assay: Antibacterial activity against Bacillus subtilis; format: functional
Plasmodium falciparum [25] = assay: Antiplasmodial activity against chloroquine-sensitive Plasmodium falciparum D6; format: functional, organism-based
Lactococcus lactis = assay: Antibacterial activity against Streptococcus lactis; format: functional
[26] = test system: Cladosporium cladosporioides; assay: Fungicidal activity against Cladosporium cladosporioides; format: functional
[27] = Inhibition of LPS-stimulated nitric oxide formation in mouse microglial cells; format: functional, cell-based

CC(C)(C)c1ccc(C(=O)/C=C/c2ccc(Br)cc2)cc1
IC50 (Plasmodium falciparum [1]): 37 µM
inhibition [2]: 83%
IC50 (Plasmodium falciparum [3]): 27 µM

COc1cc(O)c(C(=O)/C=C/c2ccccc2)c(O)c1
EC50 (Leishmania amazonensis [4]): 24 µg/mL (≈ 88.8 µM)
EC50 (Leishmania amazonensis [5]): 0.5 µg/mL (≈ 1.85 µM)

C=CC(C)(C)c1cc(/C=C/C(=O)c2ccc(O)cc2)c(OC)cc1O [LICOAGROCHACONE A]
IC50 (Leishmania major): 4 µM
IC50 [6]: 1400 µM
IC50 [7]: 593 µM
MIC (Staphylococcus aureus [8]): 16 µg/mL (≈ 47.3 µM)
MIC (Bacillus cereus): 3 µg/mL (≈ 8.87 µM)
MIC (Enterococcus faecium): 6 µg/mL (≈ 17.7 µM)
MIC (Clostridium sporogenes): 8 µg/mL (≈ 23.6 µM)
MIC (Mycobacterium kansasii): ≤ 20 µg/mL
IC50 [9]: 14 µM
MIC (Heyndrickxia coagulans): 2 µg/mL (≈ 5.91 µM)
MIC [10]: 2 µg/mL (≈ 5.91 µM)
MIC (Staphylococcus aureus [11]): 16 µg/mL (≈ 47.3 µM)
MIC (Staphylococcus aureus [12]): 16 µg/mL (≈ 47.3 µM)
MIC (Staphylococcus aureus [13]): 3.13 µg/mL (≈ 9.25 µM)
IC50 (Leishmania donovani): 0.65 µM
MIC (Mycobacterium xenopi): ≤ 20 µg/mL
MIC [14]: ≤ 20 µg/mL
IC50 [15]: 1400 µM
IC50 [16]: 1980 µM
IC50 [17]: 460 µM
MIC (Mycobacterium marinum): ≤ 20 µg/mL
IC50 [18]: 1520 µM
MIC (Helicobacter pylori): 25 µg/mL (≈ 73.9 µM)
MIC (Enterococcus faecalis): 6 µg/mL (≈ 17.7 µM)
IC50 (Plasmodium falciparum [19]): 10.3 µM
MIC (Staphylococcus aureus [20]): 6.25 µg/mL (≈ 18.5 µM)
MIC (Staphylococcus aureus [21]): 3 µg/mL (≈ 8.87 µM)
MIC (Staphylococcus aureus [22]): 6.25 µg/mL (≈ 18.5 µM)
MIC (Streptococcus mutans): 5 µg/mL (≈ 14.8 µM)
MIC [23]: 5 µg/mL (≈ 14.8 µM)
MIC [24]: 5 µg/mL (≈ 14.8 µM)
MIC (Bacillus subtilis): 2 µg/mL (≈ 5.91 µM)
IC50 (Plasmodium falciparum [25]): 10.3 µM
MIC (Lactococcus lactis): 8 µg/mL (≈ 23.6 µM)

CC1(C)CCc2c(O)ccc(C(=O)/C=C/c3ccc(O)cc3)c2O1
MIC [26]: 2 µg

CCCCOc1ccc(OCCCC)c(C(=O)/C=C/c2ccc(Cl)cc2)c1
IC50 [27]: 0.7 µM
